In experiment [1] the target is T1, Aldo-keto reductase family 1 member C4 (Homo sapiens, UniProt P17516).
T1 sequence (P17516 whole entry): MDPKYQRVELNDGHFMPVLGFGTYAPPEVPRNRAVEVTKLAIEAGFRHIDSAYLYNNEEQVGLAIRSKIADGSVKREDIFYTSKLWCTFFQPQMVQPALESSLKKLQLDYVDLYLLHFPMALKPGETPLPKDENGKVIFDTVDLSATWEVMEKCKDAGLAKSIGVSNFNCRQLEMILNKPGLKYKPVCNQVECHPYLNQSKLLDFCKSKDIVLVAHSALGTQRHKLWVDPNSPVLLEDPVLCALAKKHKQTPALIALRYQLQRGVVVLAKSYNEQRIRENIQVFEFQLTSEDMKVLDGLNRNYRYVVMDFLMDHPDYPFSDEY
Kind of experiment: Inhibition of recombinant AKR1C4 (unknown origin) assessed as reduction in S-tetralol-induced dehydrogenase activity by measuring NADPH level.

In experiment [2] the target is T2, Aldo-keto reductase family 1 member C3 (Homo sapiens, UniProt P42330).
T2 sequence (P42330 whole entry): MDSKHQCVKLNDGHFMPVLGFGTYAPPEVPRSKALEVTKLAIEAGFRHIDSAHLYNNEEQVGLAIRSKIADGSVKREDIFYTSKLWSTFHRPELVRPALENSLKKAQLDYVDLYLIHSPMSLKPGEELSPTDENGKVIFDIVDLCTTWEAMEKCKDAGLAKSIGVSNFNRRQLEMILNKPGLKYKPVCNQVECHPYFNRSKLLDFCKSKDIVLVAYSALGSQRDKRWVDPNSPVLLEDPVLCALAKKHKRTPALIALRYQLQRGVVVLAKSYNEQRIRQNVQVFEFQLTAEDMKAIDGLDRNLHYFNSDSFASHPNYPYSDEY
Kind of experiment: Inhibition of recombinant AKR1C3 (unknown origin) assessed as reduction in S-tetralol-induced dehydrogenase activity by measuring NADPH level.

The species entered for experiment [3] is Homo sapiens. Kind of experiment: Ratio of IC50 for inhibition of CBR1 (unknown origin) inhibition of recombinant AKR1C3 (unknown origin).
The species entered for experiment [4] is Homo sapiens. Briefly: Ratio of IC50 for inhibition of recombinant AKR1C1 (unknown origin) inhibition of recombinant AKR1C3 (unknown origin).
Experiment [5] is filed under the species Homo sapiens. Kind of experiment: Ratio of IC50 for inhibition of recombinant AKR1C2 (unknown origin) inhibition of recombinant AKR1C3 (unknown origin).
For experiment [6], the target named is T3, Aldo-keto reductase family 1 member C1 (Homo sapiens, UniProt Q04828).
T3 sequence (Q04828 whole entry): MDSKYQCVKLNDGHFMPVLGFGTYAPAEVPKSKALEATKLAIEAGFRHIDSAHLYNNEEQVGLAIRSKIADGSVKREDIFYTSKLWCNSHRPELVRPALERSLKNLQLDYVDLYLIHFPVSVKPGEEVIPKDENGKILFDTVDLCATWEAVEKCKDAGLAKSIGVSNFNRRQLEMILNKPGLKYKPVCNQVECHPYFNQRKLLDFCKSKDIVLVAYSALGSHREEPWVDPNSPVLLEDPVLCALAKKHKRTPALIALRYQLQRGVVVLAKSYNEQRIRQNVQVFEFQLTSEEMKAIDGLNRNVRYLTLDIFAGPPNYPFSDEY
Briefly: Inhibition of recombinant AKR1C1 (unknown origin) assessed as reduction in S-tetralol-induced dehydrogenase activity by measuring NADPH level.

For experiment [7], the target named is T4, Carbonyl reductase [NADPH] 1 (Homo sapiens, UniProt P16152).
T4 sequence (P16152 whole entry): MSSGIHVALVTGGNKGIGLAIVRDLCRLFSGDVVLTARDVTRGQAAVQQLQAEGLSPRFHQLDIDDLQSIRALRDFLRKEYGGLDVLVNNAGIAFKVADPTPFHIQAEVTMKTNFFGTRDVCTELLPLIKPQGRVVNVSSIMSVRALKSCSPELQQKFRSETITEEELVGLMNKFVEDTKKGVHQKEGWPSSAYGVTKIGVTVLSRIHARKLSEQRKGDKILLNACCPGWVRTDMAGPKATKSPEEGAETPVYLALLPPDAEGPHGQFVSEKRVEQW
Kind of experiment: Inhibition of CBR1 (unknown origin).

In experiment [8] the target is T5, Aldo-keto reductase family 1 member C2 (Homo sapiens, UniProt P52895).
T5 sequence (P52895 whole entry): T3 sequence (Q04828 whole entry) with T38V, R47H, L54V, C87S, V151M, R170H, Q172L
Kind of experiment: Inhibition of recombinant AKR1C2 (unknown origin) assessed as reduction in S-tetralol-induced dehydrogenase activity by measuring NADPH level.

The target of experiment [9] is T6, Androgen receptor (Homo sapiens) (UniProt P10275).
T6 sequence (whole entry): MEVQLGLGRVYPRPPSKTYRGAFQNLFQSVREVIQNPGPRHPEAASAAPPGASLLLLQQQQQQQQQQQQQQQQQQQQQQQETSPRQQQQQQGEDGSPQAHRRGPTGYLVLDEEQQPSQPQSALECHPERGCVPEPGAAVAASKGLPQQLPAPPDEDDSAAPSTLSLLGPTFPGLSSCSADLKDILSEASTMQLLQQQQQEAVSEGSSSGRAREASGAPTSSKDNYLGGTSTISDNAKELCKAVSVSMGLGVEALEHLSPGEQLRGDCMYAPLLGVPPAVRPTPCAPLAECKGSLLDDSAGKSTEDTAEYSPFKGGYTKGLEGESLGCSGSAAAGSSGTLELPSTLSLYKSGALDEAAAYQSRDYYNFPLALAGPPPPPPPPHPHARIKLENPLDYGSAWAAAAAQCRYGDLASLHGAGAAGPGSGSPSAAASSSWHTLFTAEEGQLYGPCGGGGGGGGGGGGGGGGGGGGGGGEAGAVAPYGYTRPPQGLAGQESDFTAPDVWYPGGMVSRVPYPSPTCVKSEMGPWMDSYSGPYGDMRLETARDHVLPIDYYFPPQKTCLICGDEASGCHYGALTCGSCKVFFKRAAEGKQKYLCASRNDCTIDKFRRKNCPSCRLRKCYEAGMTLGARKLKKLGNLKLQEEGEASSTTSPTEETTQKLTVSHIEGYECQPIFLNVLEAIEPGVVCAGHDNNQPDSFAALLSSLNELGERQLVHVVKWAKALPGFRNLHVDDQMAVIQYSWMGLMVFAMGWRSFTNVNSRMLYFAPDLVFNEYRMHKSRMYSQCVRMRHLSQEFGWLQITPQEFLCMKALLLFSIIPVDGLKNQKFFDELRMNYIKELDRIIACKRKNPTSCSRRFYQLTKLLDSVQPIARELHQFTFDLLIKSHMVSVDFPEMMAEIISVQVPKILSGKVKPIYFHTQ
Kind of experiment: Agonistic activity at AR in human 22Rv1 cells assessed as effect on cell number at 1 nM by CCK8 assay. It is filed as cell-based. The settings on record: CWR22R.

The species entered for experiment [10] is Homo sapiens. Kind of experiment: Ratio of IC50 for inhibition of recombinant AKR1C4 (unknown origin) inhibition of recombinant AKR1C3 (unknown origin).

For three compounds, IC50, Ratio IC50 and Activity results are on record in ChEMBL document CHEMBL4619820, “Development of Novel AKR1C3 Inhibitors as New Potential Treatment for Castration-Resistant Prostate Cancer” (J Med Chem, 2020).

Substitutions are numbered along the chain they refer to. Calls of active or inactive are those of the source. The calls are words filed in the database; no cut-off is given here.

With `CCc1cccc(NC(=O)c2cc3cccc(O)c3oc2=N)c1`, the half-inhibitory concentration (IC50) in experiment [1] is above 10 µM; in experiment [2], 0.034 µM; in experiment [6], above 10 µM; in [7], 0.25 µM; in experiment [8] it was above 10 µM. For the same compound, the Ratio IC50 was 7 in the experiment filed under Homo sapiens [3], above 300 in the experiment listed under Homo sapiens [4], above 300 in the experiment filed under Homo sapiens [5] and above 300 in the experiment listed under Homo sapiens [10]. In experiment [9], the result was inactive.
On to `Cc1ccc(NC(=O)c2cc3cccc(O)c3oc2=N)cc1`, for which the half-inhibitory concentration (IC50) in experiment [1] was above 10 µM; in experiment [2], 0.027 µM; in experiment [6] it was above 10 µM; in [7], 0.27 µM; in experiment [8], above 10 µM. Further, the Ratio IC50 in the experiment listed under Homo sapiens [3] is 10; in the experiment listed under Homo sapiens [4], above 370; in the experiment listed under Homo sapiens [5], above 370; in the experiment filed under Homo sapiens [10] it was above 370. Further, the outcome in experiment [9] was inactive.
As for `N=c1oc2c(O)cccc2cc1C(=O)Nc1ccc(F)cc1`, the IC50 in experiment [1] is above 10 µM; in experiment [2], 0.025 µM; in experiment [6] it was 6 µM; in [7] it was 0.44 µM; in [8], above 10 µM. Besides, the Ratio IC50 in the experiment listed under Homo sapiens [3] is 18; in the experiment filed under Homo sapiens [4] it was 240; in the experiment listed under Homo sapiens [5], above 400; in the experiment filed under Homo sapiens [10], above 400. For the same compound, in experiment [9], the result was inactive.
